Laboratory results: the NIST ThermoML archive (doi:10.1016/j.fluid.2009.09.015)
Numbers after ± are expanded uncertainties.

How the values were obtained:
[1] = refractive index (Na D-line) (dimensionless); details: 298.15 K; 101.33 kPa; Liquid; ATAGO RX-5000 refractometer with Hero Therm thermostat
[2] = Liquid; for mass density: 298 K, Vibrating tube method; for mass density / viscosity: 101.33 kPa; for viscosity: 298.15 K, Capillary tube (Ostwald / Ubbelohde) method; for Normal boiling temperature: Ebulliometric method (Recirculating still)
[3] = xn = mol fraction of the nth substance listed; details: 298.15 K, 101 kPa, Liquid; for viscosity: Capillary tube (Ostwald / Ubbelohde) method; for mass density: Vibrating tube method
[4] = refractive index (Na D-line) (dimensionless); xn = mol fraction of the nth substance listed; details: 298.15 K, 101 kPa, Liquid, ATAGO RX-5000 refractometer with Hero Therm thermostat

CCCCCCCCn1cc[n+](C)c1.O=S(=O)([N-]S(=O)(=O)C(F)(F)F)C(F)(F)F
Details	mass density [kg/m3]	refractive index	viscosity [mPa·s]
[1]	–	1.43298 ± 0.00013	–
[2]	1320.59 ± 0.25	–	92.51 ± 1.3

CCCCCCCCn1cc[n+](C)c1.O=S(=O)([N-]S(=O)(=O)C(F)(F)F)C(F)(F)F + CC(=O)OC(C)C
Details	mass density, [3] [kg/m3]	refractive index, [4]	viscosity, [3] [mPa·s]
x2 = 0.0415	1314.43 ± 0.65	1.43222 ± 0.00014	81.81 ± 1.4
x2 = 0.0984	1305.77 ± 0.68	1.4313 ± 0.00015	70.33 ± 1.2
x2 = 0.1644	1294.72 ± 0.73	1.43009 ± 0.00015	58.16 ± 0.95
x2 = 0.2055	1287.14 ± 0.83	1.42923 ± 0.00016	51.89 ± 0.81
x2 = 0.301	1267.67 ± 0.92	1.42702 ± 0.00016	38.25 ± 0.69
x2 = 0.3956	1244.68 ± 1.1	1.42458 ± 0.00018	26.57 ± 0.52
x2 = 0.4996	1214.35 ± 1.3	1.42091 ± 0.0002	17.09 ± 0.38
x2 = 0.5837	1184.33 ± 1.7	1.41742 ± 0.00023	11.42 ± 0.25
x2 = 0.7048	1129.29 ± 2.1	1.41083 ± 0.00028	5.785 ± 0.17
x2 = 0.8036	1068.65 ± 2.9	1.40324 ± 0.00039	2.993 ± 0.097
x2 = 0.8991	988.94 ± 3.3	1.39275 ± 0.00045	1.389 ± 0.069

CCCCCCCCn1cc[n+](C)c1.O=S(=O)([N-]S(=O)(=O)C(F)(F)F)C(F)(F)F + CC(C)O
Details	mass density, [3] [kg/m3]	refractive index, [4]	viscosity, [3] [mPa·s]
x2 = 0.0331	1316.64 ± 0.57	1.43251 ± 0.00014	85.24 ± 1.5
x2 = 0.066	1312.4 ± 0.58	1.43205 ± 0.00014	78.1 ± 1.3
x2 = 0.105	1307.22 ± 0.62	1.43149 ± 0.00014	71.48 ± 1.1
x2 = 0.1823	1295.84 ± 0.68	1.43031 ± 0.00015	60.13 ± 0.89
x2 = 0.2732	1280.29 ± 0.75	1.42862 ± 0.00015	47.98 ± 0.78
x2 = 0.3284	1269.48 ± 0.89	1.42746 ± 0.00016	39.87 ± 0.63
x2 = 0.4097	1250.88 ± 1.1	1.42551 ± 0.00017	33.13 ± 0.51
x2 = 0.5055	1224.13 ± 1.2	1.42269 ± 0.00018	24.79 ± 0.43
x2 = 0.5848	1196.42 ± 1.6	1.41988 ± 0.00021	19.09 ± 0.34
x2 = 0.6747	1155.99 ± 2.2	1.41568 ± 0.00026	13.79 ± 0.26
x2 = 0.7832	1087.54 ± 3.3	1.40856 ± 0.00037	8.606 ± 0.19
x2 = 0.8966	972.52 ± 4.1	1.39645 ± 0.00045	4.615 ± 0.15

CC(=O)OC(C)C [1-methylethyl ethanoate]
Details	Normal boiling temperature [°C]	mass density [kg/m3]	refractive index	viscosity [mPa·s]
[1]	–	–	1.3748 ± 0.00014	–
[2]	88.30 ± 0.04	866.21 ± 0.11	–	0.481 ± 0.006

CC(=O)OC(C)C [1-methylethyl ethanoate] + CC(C)O
Details	mass density, [3] [kg/m3]	refractive index, [4]	viscosity, [3] [mPa·s]
x1 = 0.1199	793.54 ± 0.43	1.37417 ± 0.00013	1.278 ± 0.019
x1 = 0.2041	802.03 ± 0.42	1.37374 ± 0.00013	1.021 ± 0.016
x1 = 0.294	810.58 ± 0.39	1.37344 ± 0.00013	0.812 ± 0.012
x1 = 0.3802	818.32 ± 0.37	1.3733 ± 0.00012	0.722 ± 0.009
x1 = 0.4855	827.39 ± 0.36	1.37331 ± 0.00012	0.635 ± 0.008
x1 = 0.5877	835.68 ± 0.34	1.37339 ± 0.00012	0.563 ± 0.007
x1 = 0.7138	845.52 ± 0.33	1.37369 ± 0.00012	0.538 ± 0.007
x1 = 0.7681	849.64 ± 0.32	1.37383 ± 0.00012	0.515 ± 0.006
x1 = 0.8777	857.56 ± 0.31	1.37419 ± 0.00012	0.5 ± 0.006

CC(C)O [propan-2-ol]
Details	Normal boiling temperature [°C]	mass density [kg/m3]	refractive index	viscosity [mPa·s]
[1]	–	–	1.37502 ± 0.00033	–
[2]	82.22 ± 0.04	780.88 ± 0.15	–	2.073 ± 0.024
